Laboratory results reported in ChEMBL document CHEMBL5576127, “New CDDO Arylboronate Ester Derivatives with High Selectivity and Low Toxicity” (J Med Chem, 2024).

Key:
MCF7 = experiment: Antiproliferative activity against human MCF7 cells assessed as inhibition of cell proliferation incubated for 48 hrs by MTT assay; format: functional, cell-based; details: MCF7, 48 h
BGC-823 = experiment: Antiproliferative activity against human BGC-823 cells assessed as inhibition of cell proliferation incubated for 48 hrs by MTT assay; format: functional, cell-based; details: BGC-823, 48 h
HepG2 = experiment: Antiproliferative activity against human HepG2 cells assessed as inhibition of cell proliferation incubated for 48 hrs by MTT assay; format: functional, cell-based; details: HepG2, 48 h
[1] = Cytotoxicity against human MCF-10A cells assessed as inhibition of cell proliferation incubated for 48 hrs by MTT assay; format: toxicity, cell-based
[2] = Cytotoxicity against human GES1 cells assessed as inhibition of cell proliferation incubated for 48 hrs by MTT assay; format: toxicity, cell-based
[3] = Cytotoxicity against human L02 cells assessed as inhibition of cell proliferation incubated for 48 hrs by MTT assay; format: toxicity, cell-based

| SMILES | IC50 (MCF7) [nM] | IC50 (BGC-823) [nM] | IC50 (HepG2) [µM] | IC50 at 48 h [1] [nM] | IC50 at 48 h [2] [µM] | IC50 at 48 h [3] [µM] |
| --- | --- | --- | --- | --- | --- | --- |
| CC1(C)CC[C@]2(C(=O)OCCCOC(=O)Cc3ccc(OCc4ccc(B5OC(C)(C)C(C)(C)O5)cc4)cc3)CC[C@]3(C)[C@H](C(=O)C=C4[C@@]5(C)C=C(C#N)C(=O)C(C)(C)[C@@H]5CC[C@]43C)[C@@H]2C1 | 1400 | 1600 | 2.5 | 2500 | 2.2 | 4.1 |
| COc1cc(/C=C/CC(=O)OCCCOC(=O)[C@]23CCC(C)(C)C[C@H]2[C@H]2C(=O)C=C4[C@@]5(C)C=C(C#N)C(=O)C(C)(C)[C@@H]5CC[C@@]4(C)[C@]2(C)CC3)ccc1OCc1ccc(B2OC(C)(C)C(C)(C)O2)cc1 | 29000 | 2300 | 5.5 | 2400 | 4.2 | 5.6 |
| CC1(C)CC[C@]2(C(=O)OCCc3ccc(OCc4ccc(B5OC(C)(C)C(C)(C)O5)cc4)cc3)CC[C@]3(C)[C@H](C(=O)C=C4[C@@]5(C)C=C(C#N)C(=O)C(C)(C)[C@@H]5CC[C@]43C)[C@@H]2C1 | 1000 | 700 | 2 | 1700 | 0.8 | 2.1 |

Further lines, with some results ahead:

| IC50 (MCF7) [nM] | IC50 (BGC-823) [nM] | IC50 (HepG2) [µM] | SMILES | IC50 at 48 h [1] [nM] | IC50 at 48 h [2] [µM] | IC50 at 48 h [3] [µM] |
| --- | --- | --- | --- | --- | --- | --- |
| 1100 | 1200 | 2.8 | CC1(C)CC[C@]2(C(=O)OCCCOc3ccc(NC(=O)OCc4ccc(B5OC(C)(C)C(C)(C)O5)cc4)cc3)CC[C@]3(C)[C@H](C(=O)C=C4[C@@]5(C)C=C(C#N)C(=O)C(C)(C)[C@@H]5CC[C@]43C)[C@@H]2C1 | 1800 | 1.5 | 3.5 |
| 2400 | 3200 | 65 | CC1(C)CC[C@]2(C(=O)OCCCCCCOC(=O)c3ccc(OCc4ccc(B5OC(C)(C)C(C)(C)O5)cc4)cc3)CC[C@]3(C)[C@H](C(=O)C=C4[C@@]5(C)C=C(C#N)C(=O)C(C)(C)[C@@H]5CC[C@]43C)[C@@H]2C1 | 3300 | 4.7 | 6.4 |
| 12900 | 8300 | 15.5 | COc1cc(C(=O)OCCCCOC(=O)[C@]23CCC(C)(C)C[C@H]2[C@H]2C(=O)C=C4[C@@]5(C)C=C(C#N)C(=O)C(C)(C)[C@@H]5CC[C@@]4(C)[C@]2(C)CC3)ccc1OCc1ccc(B2OC(C)(C)C(C)(C)O2)cc1 | 12400 | 9.2 | 15.6 |
| 3500 | 3500 | 5.4 | COc1cc(C(=O)OCCCCOC(=O)[C@]23CCC(C)(C)C[C@H]2[C@H]2C(=O)C=C4[C@@]5(C)C=C(C#N)C(=O)C(C)(C)[C@@H]5CC[C@@]4(C)[C@]2(C)CC3)cc(OC)c1OCc1ccc(B2OC(C)(C)C(C)(C)O2)cc1 | 4000 | 4.2 | 6.1 |
